Values joined by “and” are separate entries in the source; they are usually repeats but may differ in a detail not shown here. Identical values can stand only once.
Tested on: 519858-162-T-J1-PDC spheroid growth inhibition
Assay: Anticancer human tumor 519858-162-T-J1-PDC patient-derived colon adenocarcinoma cell line growth inhibition [TAK]
Conditions: spheroids with HUVEC and MSC; for viability, T/C: stronger effect = lower value
In short: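 Tumor cells were grown as spheroids with HUVEC and hMSC (60:25:15) and treated with targeted agents combined with TAK-243 or ipatasertib. Drugs were tested in half-log steps down from near the clinical Cmax, or from 10 microM where Cmax was unknown.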
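Further: spheroids exposed to drugs for 7 days.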

`CCCS(=O)(=O)Nc1ccc(F)c(C(=O)c2c[nH]c3ncc(-c4ccc(Cl)cc4)cc23)c1F` was tested, and the viability, T/C (compound 0.316 µM) was 99.3% and 108%, the viability, T/C (compound 1 µM) was 91.4% and 91.7% and the viability, T/C (compound 3.16 µM) was 105% and 126%. For the same compound, the viability, T/C (compound 10 µM) was 91.9% and 93%, the viability, T/C (compound 31.6 µM) was 114% and 129% and the viability, T/C (compound 100 µM) was 132% and 140%. For the same compound, the IC50 (curve of compound) was greater than 100000 nM.
`COC1CC2CCC(C)C(O)(O2)C(=O)C(=O)N2CCCCC2C(=O)OC(C(C)CC2CCC(OCCO)C(OC)C2)CC(=O)C(C)C=C(C)C(O)C(OC)C(=O)C(C)CC(C)C=CC=CC=C1C` (stereo not given) + CC(C)NCC(C(=O)N1CCN(c2ncnc3c2C(C)CC3O)CC1)c1ccc(Cl)cc1 gave an IC50 (curve of first compound, second compound 0.3 µM) greater than 100 nM, an IC50 (curve of first compound, second compound 0.949 µM) greater than 100 nM and an IC50 (curve of first compound, second compound 3 µM) greater than 100 nM. The IC50 (curve of first compound, second compound 9.49 µM) was greater than 100 nM, the IC50 (curve of first compound, second compound 30 µM) was greater than 100 nM and the viability, T/C (second compound 0.3 µM, first compound 0.000316 µM) was 102%. The viability, T/C (second compound 0.3 µM, first compound 0.001 µM) was 91.5%, the viability, T/C (second compound 0.3 µM, first compound 0.00316 µM) was 89.6% and the viability, T/C (second compound 0.3 µM, first compound 0.01 µM) was 90%. It also gave a viability, T/C (second compound 0.3 µM, first compound 0.0316 µM) of 104%, a viability, T/C (second compound 0.3 µM, first compound 0.1 µM) of 84.6% and a viability, T/C (second compound 0.949 µM, first compound 0.000316 µM) of 83.6%. The viability, T/C (second compound 0.949 µM, first compound 0.001 µM) was 87.1%, the viability, T/C (second compound 0.949 µM, first compound 0.00316 µM) was 65.8% and the viability, T/C (second compound 0.949 µM, first compound 0.01 µM) was 85.7%. For the same compound, the viability, T/C (second compound 0.949 µM, first compound 0.0316 µM) was 85.2%, the viability, T/C (second compound 0.949 µM, first compound 0.1 µM) was 71.6% and the viability, T/C (second compound 3 µM, first compound 0.000316 µM) was 99.2%. The viability, T/C (second compound 3 µM, first compound 0.001 µM) was 68.7%, the viability, T/C (second compound 3 µM, first compound 0.00316 µM) was 85.3% and the viability, T/C (second compound 3 µM, first compound 0.01 µM) was 93.4%. For the same compound, the viability, T/C (second compound 3 µM, first compound 0.0316 µM) was 85.6%, the viability, T/C (second compound 3 µM, first compound 0.1 µM) was 94.1% and the viability, T/C (second compound 9.49 µM, first compound 0.000316 µM) was 98.9%. For the same compound, the viability, T/C (second compound 9.49 µM, first compound 0.001 µM) was 84.6%, the viability, T/C (second compound 9.49 µM, first compound 0.00316 µM) was 75.6% and the viability, T/C (second compound 9.49 µM, first compound 0.01 µM) was 98%. For the same compound, the viability, T/C (second compound 9.49 µM, first compound 0.0316 µM) was 85.8%, the viability, T/C (second compound 9.49 µM, first compound 0.1 µM) was 73.8% and the viability, T/C (second compound 30 µM, first compound 0.000316 µM) was 90.2%. It also gave a viability, T/C (second compound 30 µM, first compound 0.001 µM) of 96.8%, a viability, T/C (second compound 30 µM, first compound 0.00316 µM) of 82.3% and a viability, T/C (second compound 30 µM, first compound 0.01 µM) of 96.8%. For the same compound, the viability, T/C (second compound 30 µM, first compound 0.0316 µM) was 97.3% and the viability, T/C (second compound 30 µM, first compound 0.1 µM) was 72.6%.
For `CC(C)n1nc(-c2ccc3oc(N)nc3c2)c2c(N)ncnc21`, the viability, T/C (compound 0.001 µM) was 104% and 100%, the viability, T/C (compound 0.00316 µM) was 94.8% and 95.9% and the viability, T/C (compound 0.01 µM) was 112% and 97.5%. For the same compound, the viability, T/C (compound 0.0316 µM) was 78.9% and 93.1%, the viability, T/C (compound 0.1 µM) was 74.1% and 61.6% and the IC50 (curve of compound) was greater than 100 nM.
`COc1c(OCCCN2CCOCC2)ccc2c3n(c(=NC(=O)c4cnc(N)nc4)nc12)CCN3` was tested, and the viability, T/C (compound 0.00316 µM) was 95.7% and 91.3%, the viability, T/C (compound 0.01 µM) was 80.9% and 100% and the viability, T/C (compound 0.0316 µM) was 81.7% and 72.2%. For the same compound, the viability, T/C (compound 0.1 µM) was 48.8% and 62.1%, the viability, T/C (compound 0.316 µM) was 43.9% and 52.3% and the viability, T/C (compound 1 µM) was 33.8% and 44.4%. The IC50 (curve of compound) was 111 nM and 315 nM.
